{"source": "patent US20260049072A1", "about": "“HETEROCYCLIC COMPOUND FOR INDUCING DEGRADATION OF MUTANT KRAS PROTEIN” (Astellas Pharma Inc., priority 2022, published 2026)", "key": {"PA-TU-8902 cells": {"test_system": "PA-TU-8902 cells", "test": "Non-anchorage-dependent cell growth inhibition (spheroid 3D culture), PA-TU-8902", "type": "cell-based, human", "conditions": "Homo sapiens, PaTu 8902, 144 h; KRAS G12V mutant-positive, 3D spheroid, six days, CellTiter-Glo 2.0; read-out: PA-TU-8902 IC50", "method": "Test Example 3: Evaluation of Non-Anchorage-Dependent Cell Growth Inhibitory Activity on Human KRAS G12V Mutant-Positive Pancreatic Cancer Line PA-TU-8902, Human KRAS G12D Mutant-Positive Pancreatic Cancer Line AsPC-1 or Human KRAS G12C Mutant-Positive Pancreatic Cancer Line MIA PaCa-2\nThe non-anchorage-dependent cell growth inhibitory activities of subject compounds were evaluated by spheroid 3D cell culture.\nPA-TU-8902 cells, AsPC-1 cells or MIA PaCa-2 cells (RIKEN BRC, RCB2094) were seeded at 36 µL/well on a low-cell-adhesive round bottom 384-well plate (Prime Surface: from Sumitomo Bakelite) to give 5×10^2 cells per well. The PA-TU-8902 cells were under the same conditions as in Test Example 1-1, and the AsPC-1 cells were under the same conditions as in Test Example 1-2. For the MIA PaCa-2 cells, RPMI-1640 medium containing 10% fetal bovine serum was used in the presence of 5% CO2 at 37° C.\nThe next day, the subject compounds (6-9 points having final concentrations in the range of 3 μM to 0.3 nM) and DMSO, which was the solvent for the subject compounds, as a negative control were diluted 100-fold with a fresh medium and were each added at 4 μL per well. After culturing in the presence of 5% CO2 at 37° C. for six days, CellTiter-Glo 2.0 (from Promega) was added at 20 μL per well. After stirring with a plate mixer (from FINEPCR) at normal temperature for an hour, the luminescent signals were measured with ARVO X3 (from PerkinElmer).\nWith the signaling value in treatment with DMSO taken as 0% inhibition and with the signaling value in the medium alone without cells taken as 100% inhibition, the 50% inhibition values (IC50) were calculated by Sigmoid-Emax model nonlinear regression analysis."}, "RAS G12V": {"target": "T1, RAS G12V (Homo sapiens, UniProt P01116, G12V)", "T1 construct": "host or cells: PA-TU-8902 human pancreatic cancer cells", "T1 sequence (P01116 1-188 isoform P01116-2 G12V)": "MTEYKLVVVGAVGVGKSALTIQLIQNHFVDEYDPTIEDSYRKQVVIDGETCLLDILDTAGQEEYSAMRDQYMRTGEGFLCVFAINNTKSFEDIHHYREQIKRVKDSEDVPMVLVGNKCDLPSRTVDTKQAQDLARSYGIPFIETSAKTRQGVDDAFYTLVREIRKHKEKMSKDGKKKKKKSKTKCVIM", "test": "RAS G12V degradation activity, Cell ELISA, PA-TU-8902", "type": "cell-based", "conditions": "PA-TU-8902 cells, 24 hours, 100% = Example compound 17 at 1 μM; read-out: DC50 (RAS G12V 50% degradation value)", "method": "Test Example 1-1: Evaluation of RAS G12V Degradation Activity on Human KRAS G12V Mutant-Positive Pancreatic Cancer Line PA-TU-8902\nThe RAS G12V degradation activities of subject compounds were evaluated by measuring the expression levels of RAS G12V by a Cell ELISA method.\nPA-TU-8902 cells (DSMZ, ACC 179) were seeded at 36 μL per well on a 384-well plate (from Greiner bio-one) to give 1.5×10^4 cells per well. As for the cell culture conditions, DMEM medium (from Sigma-Aldrich) containing 10% fetal bovine serum (from Cytiva) was used in the presence of 5% CO2 at 37° C.\nThe next day, the subject compounds (10 points having final concentrations in the range of 3 μM to 0.1 nM), Example compound 17 of a final concentration of 1 μM as a positive control and dimethyl sulfoxide (DMSO), which was the solvent for the subject compounds, as a negative control were diluted 100-fold with a fresh medium and were each added at 4 μL per well, followed by culturing for 24 hours.\nThe next day, the culture supernatant was removed, and a 4% paraformaldehyde phosphate buffer solution (from FUJIFILM Wako) was added at 20 μL per well. The plate was allowed to stand for 30 minutes at room temperature to thus immobilize the cells. Then, the supernatant was removed, and 0.1% Triton X-100 (from Amersham Biosciences)-containing Phosphate buffered saline (PBS) was added at 20 μL per well. After allowing the plate to stand at room temperature for 10 minutes, the supernatant was removed, and the wells were washed twice in total by adding PBS at 25 μL per well and removing the supernatant. The washing operations below were performed in the same manner. Next, the supernatant was removed, and 0.5% sodium dodecyl sulfate (SDS; from ThermoFisher Scientific)-containing PBS was added at 20 μL per well. After allowing the plate to stand at room temperature for 10 minutes, the plate was centrifuged to remove the supernatant. After washing with PBS, the supernatant was removed by centrifugation, and a blocking solution (PVDF Blocking Reagent for Can Get Signal; from TOYOBO) was added at 20 μL per well. After allowing the plate to stand for 30 minutes at room temperature, the supernatant was removed by centrifugation, and a solution obtained by diluting an anti-Ras (G12V Mutant Specific) antibody (Ras (G12V Mutant Specific) (D2H12) Rabbit mAb; from Cell Signaling Technology; 500-fold dilution) and an anti-3-actin antibody (Anti-beta Actin antibody; from Abcam; 5,000-fold dilution) with Can Get Signal Solution 2 (from TOYOBO) was added at 15 μL per well as primary antibodies. The plate was allowed to stand overnight at 4° C.\nThe next day, the supernatant was removed by centrifugation, and the plate was washed with PBS. The supernatant was removed by centrifugation, and a solution obtained by diluting an anti-rabbit IgG antibody (IRDye 800CW Goat anti-Rabbit IgG; from LI-COR Biosciences) and an anti-mouse IgG antibody (IRDye 680RD Donkey anti-Mouse IgG; from LI-COR Biosciences) 1,000-fold with Can Get Signal Solution 2 was added at 15 μL per well as secondary antibodies. After allowing the plate to stand at room temperature for an hour, the supernatant was removed by centrifugation, and the plate was washed with PBS. After removing the supernatant, the plate was dried as it was with air at room temperature for two hours or more, and the 700-nm and 800-nm fluorescent signals were measured with Aerius (from LI-COR Biosciences).\nWith the RAS G12V signaling value at the time of addition of DMSO corrected with the signaling value of 3-actin taken as 0% and with the RAS G12V signaling value at the time of addition of Example compound 17 of a final concentration of 1 μM taken as 100%, the RAS G12V degradation rates were calculated. The 50% degradation values (DC50) were calculated by Sigmoid-Emax model nonlinear regression analysis."}}}
{"smiles": "CO[C@@H](C)COc1nc(NC2CN(C(=O)O[C@H]3C[C@@H](N(C)C)C3)C2)c2cc(C3CC3)c(-c3c(C)c(F)cc4[nH]ncc34)c(OCc3ccc(-c4cn([C@H](C(=O)N5C[C@H](O)C[C@H]5C(=O)N[C@@H](CO)c5ccc(-n6cncn6)cc5)C(C)C)nn4)cc3)c2n1", "note": "(atropisomer, axis not shown; (M)) [Example 2, (1s,3R)-3-(dimethylamino)cyclobutyl 3-({(7M)-6-cyclopropyl-7-(6-fluoro-5-methyl-1H-indazol-4-yl)-8-{[4-(1-{(2S)-1-[(2S,4R)-4-hydroxy-2({(1R)-2-hydroxy-1-[4-(1H-1,2,4-triazol-1-yl)phenyl]ethyl}carbamoyl)pyrrolidin-1-yl]-3-methyl-1-oxobutan-2-yl}-1H-1,2,3-triazol-4-yl)phenyl]methoxy}-2-[(2S)-2-methoxypropoxy]quinazolin-4-yl}amino)azetidine-1-carboxylate]", "values": [{"measurement": "IC50", "setting": "PA-TU-8902 cells", "value": 33, "unit": "nM"}, {"measurement": "DC50", "setting": "RAS G12V", "value": 18, "unit": "nM"}]}
{"smiles": "CO[C@@H](C)COc1cc(OC2CN(C(=O)N3CC(CN(C)C)C3)C2)c2cc(C3CC3)c(-c3c(C)c(F)cc4[nH]ncc34)c(OCc3ccc(-c4cn([C@H](C(=O)N5C[C@H](O)C[C@H]5C(=O)N[C@@H](CO)c5ccc(-n6cncn6)cc5)C(C)C)nn4)cc3)c2n1", "note": "(atropisomer, axis not shown; (M)) [Example 5, (4R)-1-[(2S)-2-(4-{4-[({(7M)-6-cyclopropyl-4-[(1-{3-[(dimethylamino)methyl]azetidine-1-carbonyl}azetidin-3-yl)oxy]-7-(6-fluoro-5-methyl-1H-indazol-4-yl)-2-[(2S)-2-methoxypropoxy]quinolin-8-yl}oxy)methyl]phenyl}-1H-1,2,3-triazol-1-yl)-3-methylbutanoyl]-4-hydroxy-N-{(1R)-2-hydroxy-1-[4-(1H-1,2,4-triazol-1-yl)phenyl]ethyl}-L-prolinamide]", "values": [{"measurement": "IC50", "setting": "PA-TU-8902 cells", "value": 29, "unit": "nM"}, {"measurement": "DC50", "setting": "RAS G12V", "value": 26, "unit": "nM"}]}
{"smiles": "CO[C@@H](C)COc1cc(OC2CN(C(=O)N3CC(CN(C)C)C3)C2)c2cc(C3CC3)c(-c3c(C)c(F)cc4[nH]ncc34)c(OCc3ccc(-c4cn([C@H](C(=O)N5C[C@H](O)C[C@H]5C(=O)N[C@@H](CO)c5ccc(-c6ocnc6C)cc5)C(C)C)nn4)cc3)c2n1", "note": "(atropisomer, axis not shown; (M)) [Example 6, (4R)-1-[(2S)-2-(4-{4-[({(7M)-6-cyclopropyl-4-[(1-{3-[(dimethylamino)methyl]azetidine-1-carbonyl}azetidin-3-yl)oxy]-7-(6-fluoro-5-methyl-1H-indazol-4-yl)-2-[(2S)-2-methoxypropoxy]quinolin-8-yl}oxy)methyl]phenyl}-1H-1,2,3-triazol-1-yl)-3-methylbutanoyl]-4-hydroxy-N-{(1R)-2-hydroxy-1-[4-(4-methyl-1,3-oxazol-5-yl)phenyl]ethyl}-L-prolinamide]", "values": [{"measurement": "IC50", "setting": "PA-TU-8902 cells", "value": 32, "unit": "nM"}, {"measurement": "DC50", "setting": "RAS G12V", "value": 22, "unit": "nM"}]}
{"smiles": "CO[C@@H](C)COc1nc(NC2CN(C(=O)O[C@H]3C[C@@H](N(C)C)C3)C2)c2cc(C3CC3)c(-c3c(C)c(F)cc4[nH]ncc34)c(OCc3ccc(-c4cn([C@H](C(=O)N5C[C@H](O)C[C@H]5C(=O)N[C@@H](CO)c5ccc(-c6scnc6C)cc5)C(C)C)nn4)cc3)c2n1", "note": "(atropisomer, axis not shown; (M)) [Example 11, (1s,3R)-3-(dimethylamino)cyclobutyl 3-({(7M)-6-cyclopropyl-7-(6-fluoro-5-methyl-1H-indazol-4-yl)-8-{[4-(1-{(2S)-1-[(2S,4R)-4-hydroxy-2-({(1R)-2-hydroxy-1-[4-(4-methyl-1,3-thiazol-5-yl)phenyl]ethyl}carbamoyl)pyrrolidin-1-yl]-3-methyl-1-oxobutan-2-yl}-1H-1,2,3-triazol-4-yl)phenyl]methoxy}-2-[(2S)-2-methoxypropoxy]quinazolin-4-yl}amino)azetidine-1-carboxylate]", "values": [{"measurement": "IC50", "setting": "PA-TU-8902 cells", "value": 45, "unit": "nM"}, {"measurement": "DC50", "setting": "RAS G12V", "value": 13, "unit": "nM"}]}
{"smiles": "CO[C@@H](C)COc1cc(OC2CN(C(=O)NCCN(C)C)C2)c2cc(C3CC3)c(-c3c(C)c(F)cc4[nH]ncc34)c(OCc3ccc(-c4cn([C@H](C(=O)N5C[C@H](O)C[C@H]5C(=O)N[C@@H](CO)c5ccc(-n6cncn6)cc5)C(C)C)nn4)cc3)c2n1", "note": "(atropisomer, axis not shown; (M)) [Example 12, (4R)-1-[(2S)-2-(4-{4-[({(7M)-6-cyclopropyl-4-[(1-{[2-(dimethylamino)ethyl]carbamoyl}azetidin-3-yl)oxy]-7-(6-fluoro-5-methyl-1H-indazol-4-yl)-2-[(2S)-2-methoxypropoxy]quinolin-8-yl}oxy)methyl]phenyl}-1H-1,2,3-triazol-1-yl)-3-methylbutanoyl]-4-hydroxy-N-{(1R)-2-hydroxy-1-[4-(1H-1,2,4-triazol-1-yl)phenyl]ethyl}-L-prolinamide]", "values": [{"measurement": "IC50", "setting": "PA-TU-8902 cells", "value": 36, "unit": "nM"}, {"measurement": "DC50", "setting": "RAS G12V", "value": 37, "unit": "nM"}]}
{"smiles": "CO[C@@H](C)COc1cc(OC2CN(C(=O)O[C@H]3C[C@@H](N(C)C)C3)C2)c2cc(C3CC3)c(-c3c(C)c(F)cc4[nH]ncc34)c(OCc3ccc(-c4cn([C@H](C(=O)N5C[C@H](O)C[C@H]5C(=O)N[C@@H](CO)c5ccc(-n6cncn6)cc5)C(C)C)nn4)cc3)c2n1", "note": "(atropisomer, axis not shown; (M)) [Example 13, (1s,3R)-3-(dimethylamino)cyclobutyl 3-({(7M)-6-cyclopropyl-7-(6-fluoro-5-methyl-1H-indazol-4-yl)-8-{[4-(1-{(2S)-1-[(2S,4R)-4-hydroxy-2-({(1R)-2-hydroxy-1-[4-(1H-1,2,4-triazol-1-yl)phenyl]ethyl}carbamoyl)pyrrolidin-1-yl]-3-methyl-1-oxobutan-2-yl}-1H-1,2,3-triazol-4-yl)phenyl]methoxy}-2-[(2S)-2-methoxypropoxy]quinolin-4-yl}oxy)azetidine-1-carboxylate]", "values": [{"measurement": "IC50", "setting": "PA-TU-8902 cells", "value": 36, "unit": "nM"}, {"measurement": "DC50", "setting": "RAS G12V", "value": 11, "unit": "nM"}]}
